Patent publication US7494996B2 (priority 2000, dated 2009)

How the values were obtained:
Sphaerotheca fuliginea = assay: Cucumber Powdery Mildew (CPM) protectant test in the greenhouse; format: in vivo; details: 100 is total disease control, 0 is no disease control; for pest or weed control at 300 g/ha: Podosphaera fuliginea, topical, 168 h, read-out: Cucumber Powdery Mildew (CPM) protectant fungicide data, percent control; for Cucumber Powdery Mildew (CPM) protectant fungicide data, percent control: 300 g/ha
Outline: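 Protectant format: one day after spraying with test compound (A/M/W 1:1:2), cotyledon-plus-one-leaf cucumber plants were misted with Sphaerotheca spores at 2×10^5/ml. Greenhouse disease development; percent control scored at day 7 (100 = total, 0 = none).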

Pyricularia oryzae = assay: whole plant or invertebrate; format: in vivo; details: 100 is total disease control, 0 is no disease control; for pest or weed control at 300 g/ha: Pyricularia oryzae, topical, 144 h, read-out: Rice Blast (RB) protectant fungicide data, percent control, protectant, 300 g/ha, greenhouse; for Rice Blast (RB) protectant fungicide data, percent control: 300 g/ha, greenhouse

## COC(=O)SN1CC(=O)N(CC(F)(F)F)N=C1c1cc(Cl)cc(Cl)c1 [Compound 14, 1-(2,2,2-trifluoroethyl)-3-(3,5-dichlorophenyl)-4-(methoxycarbonylthio)-4,5-dihydro-1,2,4-triazin-6-one]
Sphaerotheca fuliginea
  pest or weed control at 300 g/ha: 85%
Pyricularia oryzae
  pest or weed control at 300 g/ha: 100%

## CCOc1ccc(C2=NN(c3ccc(Cl)cc3)C(=O)CN2)cc1 [Compound 161]
Sphaerotheca fuliginea
  Cucumber Powdery Mildew (CPM) protectant fungicide data, percent control: 0 percent control
Pyricularia oryzae
  Rice Blast (RB) protectant fungicide data, percent control: 80 percent control

## CCCCCN1N=C(c2ccc(Cl)c(Cl)c2)NCC1=O [Compound 197]
Sphaerotheca fuliginea
  Cucumber Powdery Mildew (CPM) protectant fungicide data, percent control: 75 percent control
Pyricularia oryzae
  Rice Blast (RB) protectant fungicide data, percent control: 99 percent control

## Cc1c(Cl)cc(C2=NN(CC(F)(F)F)C(=O)CN2)cc1Cl [Compound 47]
Sphaerotheca fuliginea
  Cucumber Powdery Mildew (CPM) protectant fungicide data, percent control: 80 percent control
Pyricularia oryzae
  Rice Blast (RB) protectant fungicide data, percent control: 100 percent control

## CCCCn1nc(-c2cccc(Cl)c2)ncc1=O [Compound 277]
Sphaerotheca fuliginea
  Cucumber Powdery Mildew (CPM) protectant fungicide data, percent control: 0 percent control
Pyricularia oryzae
  Rice Blast (RB) protectant fungicide data, percent control: 95 percent control

## CCC#CCN1CC(=O)N(CCCC)N=C1c1ccc(Cl)c(Cl)c1 [Compound 180]
Sphaerotheca fuliginea
  Cucumber Powdery Mildew (CPM) protectant fungicide data, percent control: 90 percent control
Pyricularia oryzae
  Rice Blast (RB) protectant fungicide data, percent control: 95 percent control

## CCCCN1N=C(c2ccc(Cl)c(Cl)c2)N(C(=S)Oc2ccccc2)CC1=O [Compound 178]
Sphaerotheca fuliginea
  Cucumber Powdery Mildew (CPM) protectant fungicide data, percent control: 0 percent control
Pyricularia oryzae
  Rice Blast (RB) protectant fungicide data, percent control: 75 percent control

## FC(F)(F)Cn1nc(-c2cccc(Cl)c2)ncc1=S [Compound 246]
Sphaerotheca fuliginea
  Cucumber Powdery Mildew (CPM) protectant fungicide data, percent control: 0 percent control
Pyricularia oryzae
  Rice Blast (RB) protectant fungicide data, percent control: 100 percent control

## CCOC(=O)N1C(c2cc(Cl)cc(Cl)c2)=NN(CC(F)(F)F)C(=O)C1OC (stereo not drawn) [Compound 214]
Sphaerotheca fuliginea
  Cucumber Powdery Mildew (CPM) protectant fungicide data, percent control: 85 percent control
Pyricularia oryzae
  Rice Blast (RB) protectant fungicide data, percent control: 50 percent control

## C#CCOC(=O)N1CC(=O)N(CCCC)N=C1c1ccc(Cl)c(Cl)c1 [Compound 171]
Sphaerotheca fuliginea
  Cucumber Powdery Mildew (CPM) protectant fungicide data, percent control: 50 percent control
Pyricularia oryzae
  Rice Blast (RB) protectant fungicide data, percent control: 80 percent control

## O=c1cnc(-c2ccc(Cl)cc2)nn1-c1ccccn1 [Compound 261]
Sphaerotheca fuliginea
  Cucumber Powdery Mildew (CPM) protectant fungicide data, percent control: 0 percent control
Pyricularia oryzae
  Rice Blast (RB) protectant fungicide data, percent control: 50 percent control

## O=C1CN(CCCl)C(c2cc(Cl)cc(Cl)c2)=NN1CC(F)(F)F [Compound 126]
Sphaerotheca fuliginea
  Cucumber Powdery Mildew (CPM) protectant fungicide data, percent control: 0 percent control
Pyricularia oryzae
  Rice Blast (RB) protectant fungicide data, percent control: 50 percent control

## CSc1ccc(C2=NN(CC(F)(F)F)C(=O)CN2)cc1 [Compound 147]
Sphaerotheca fuliginea
  Cucumber Powdery Mildew (CPM) protectant fungicide data, percent control: 0 percent control
Pyricularia oryzae
  Rice Blast (RB) protectant fungicide data, percent control: 98 percent control

## O=C1CN(CC2CC2)C(c2ccc(F)c(Br)c2)=NN1CC1CC1 [Compound 219]
Sphaerotheca fuliginea
  Cucumber Powdery Mildew (CPM) protectant fungicide data, percent control: 75 percent control
Pyricularia oryzae
  Rice Blast (RB) protectant fungicide data, percent control: 50 percent control

## O=C1CNC(c2ccc(C(F)(F)F)cc2)=NN1CC(F)(F)F [Compound 51]
Sphaerotheca fuliginea
  Cucumber Powdery Mildew (CPM) protectant fungicide data, percent control: 0 percent control
Pyricularia oryzae
  Rice Blast (RB) protectant fungicide data, percent control: 90 percent control

## CN1N=C(c2ccccc2)NCC1=O [Compound 31]
Sphaerotheca fuliginea
  Cucumber Powdery Mildew (CPM) protectant fungicide data, percent control: 0 percent control
Pyricularia oryzae
  Rice Blast (RB) protectant fungicide data, percent control: 50 percent control

## C#CCN1N=C(c2ccc(Cl)c(Cl)c2)NCC1=O [Compound 215]
Sphaerotheca fuliginea
  Cucumber Powdery Mildew (CPM) protectant fungicide data, percent control: 0 percent control
Pyricularia oryzae
  Rice Blast (RB) protectant fungicide data, percent control: 85 percent control

## C=CCOC(=O)N1CC(=O)N(CCCC)N=C1c1ccc(Cl)c(Cl)c1 [Compound 172]
Sphaerotheca fuliginea
  Cucumber Powdery Mildew (CPM) protectant fungicide data, percent control: 0 percent control
Pyricularia oryzae
  Rice Blast (RB) protectant fungicide data, percent control: 98 percent control

## C=COC(=O)N1CC(=O)N(CC(F)(F)F)N=C1c1cc(Cl)cc(Cl)c1 [Compound 113]
Sphaerotheca fuliginea
  Cucumber Powdery Mildew (CPM) protectant fungicide data, percent control: 75 percent control
Pyricularia oryzae
  Rice Blast (RB) protectant fungicide data, percent control: 99 percent control

## CCCCN1N=C(c2ccc(F)c(Br)c2)NCC1=O [Compound 207]
Sphaerotheca fuliginea
  Cucumber Powdery Mildew (CPM) protectant fungicide data, percent control: 85 percent control
Pyricularia oryzae
  Rice Blast (RB) protectant fungicide data, percent control: 100 percent control

## CCCCn1nc(-c2ccccc2O)ncc1=O [Compound 287]
Sphaerotheca fuliginea
  Cucumber Powdery Mildew (CPM) protectant fungicide data, percent control: 0 percent control
Pyricularia oryzae
  Rice Blast (RB) protectant fungicide data, percent control: 80 percent control

## Cc1ccccc1C1=NN(CC(F)(F)F)C(=O)C(O)N1 (stereo not drawn) [Compound 105]
Sphaerotheca fuliginea
  Cucumber Powdery Mildew (CPM) protectant fungicide data, percent control: 75 percent control
Pyricularia oryzae
  Rice Blast (RB) protectant fungicide data, percent control: 85 percent control

## O=C1CN(CC2CC2)C(c2cccc(Br)c2)=NN1CC1CC1 [Compound 224]
Sphaerotheca fuliginea
  Cucumber Powdery Mildew (CPM) protectant fungicide data, percent control: 50 percent control
Pyricularia oryzae
  Rice Blast (RB) protectant fungicide data, percent control: 75 percent control

## CCCCN1N=C(c2ccc(Cl)c(Cl)c2)N(C(=O)C2CC2)CC1=O [Compound 181]
Sphaerotheca fuliginea
  Cucumber Powdery Mildew (CPM) protectant fungicide data, percent control: 0 percent control
Pyricularia oryzae
  Rice Blast (RB) protectant fungicide data, percent control: 50 percent control

## O=C1CNC(c2ccc(Cl)cc2)=NN1Cc1ccc(Cl)s1 [Compound 62]
Sphaerotheca fuliginea
  Cucumber Powdery Mildew (CPM) protectant fungicide data, percent control: 0 percent control
Pyricularia oryzae
  Rice Blast (RB) protectant fungicide data, percent control: 85 percent control

## O=C1CNC(c2ccco2)=NN1CC(F)(F)F [Compound 140]
Sphaerotheca fuliginea
  Cucumber Powdery Mildew (CPM) protectant fungicide data, percent control: 50 percent control
Pyricularia oryzae
  Rice Blast (RB) protectant fungicide data, percent control: 0 percent control

## C#CCN1CC(=O)N(CC#C)N=C1c1cccc(Br)c1 [Compound 226]
Sphaerotheca fuliginea
  Cucumber Powdery Mildew (CPM) protectant fungicide data, percent control: 0 percent control
Pyricularia oryzae
  Rice Blast (RB) protectant fungicide data, percent control: 50 percent control

## CCCCN1N=C(c2ccc(-c3ccc(C4=NN(CCCC)C(=O)CN4)cc3)cc2)NCC1=O [Compound 231]
Sphaerotheca fuliginea
  pest or weed control at 300 g/ha: 0%
Pyricularia oryzae
  pest or weed control at 300 g/ha: 85%

## CCCCCCCCN1N=C(c2ccc(Cl)cc2)NCC1=O [Compound 56]
Sphaerotheca fuliginea
  Cucumber Powdery Mildew (CPM) protectant fungicide data, percent control: 80 percent control
Pyricularia oryzae
  Rice Blast (RB) protectant fungicide data, percent control: 80 percent control

## CCC#CCN1N=C(c2ccc(Cl)c(Cl)c2)NCC1=O [Compound 210]
Sphaerotheca fuliginea
  Cucumber Powdery Mildew (CPM) protectant fungicide data, percent control: 25 percent control
Pyricularia oryzae
  Rice Blast (RB) protectant fungicide data, percent control: 100 percent control

## CCCCN1N=C(c2ccc(OC)cc2)NCC1=O [Compound 36]
Sphaerotheca fuliginea
  Cucumber Powdery Mildew (CPM) protectant fungicide data, percent control: 50 percent control
Pyricularia oryzae
  Rice Blast (RB) protectant fungicide data, percent control: 99 percent control

## CCCCN1N=C(c2cc3ccccc3s2)NCC1=O [Compound 162]
Sphaerotheca fuliginea
  Cucumber Powdery Mildew (CPM) protectant fungicide data, percent control: 50 percent control
Pyricularia oryzae
  Rice Blast (RB) protectant fungicide data, percent control: 95 percent control

## CC(=O)CC1NC(c2ccc(Cl)cc2)=NN(CC(F)(F)F)C1=O (stereo not drawn) [Compound 20, 1-(2,2,2-Trifluorethyl)-3-(4-chlorophenyl)-5-(2-propanone)-4,5-dihydro-1,2,4-triazin-6-one]
Sphaerotheca fuliginea
  Cucumber Powdery Mildew (CPM) protectant fungicide data, percent control: 75 percent control
Pyricularia oryzae
  Rice Blast (RB) protectant fungicide data, percent control: 50 percent control

## O=C1CNC(c2ccc(F)cc2)=NN1CC(F)(F)F [Compound 149]
Sphaerotheca fuliginea
  Cucumber Powdery Mildew (CPM) protectant fungicide data, percent control: 75 percent control
Pyricularia oryzae
  Rice Blast (RB) protectant fungicide data, percent control: 95 percent control

## CCC#CCN1CC(=O)N(CC#CCC)N=C1c1ccc(Cl)c(Cl)c1 [Compound 209]
Sphaerotheca fuliginea
  Cucumber Powdery Mildew (CPM) protectant fungicide data, percent control: 0 percent control
Pyricularia oryzae
  Rice Blast (RB) protectant fungicide data, percent control: 75 percent control

## Cc1cccc(N2N=C(c3ccc(Cl)cc3)NCC2=O)c1 [Compound 58]
Sphaerotheca fuliginea
  Cucumber Powdery Mildew (CPM) protectant fungicide data, percent control: 50 percent control
Pyricularia oryzae
  Rice Blast (RB) protectant fungicide data, percent control: 85 percent control

## CCCCN1C=C2c3ccccc3OC(=O)N2CC1=O [Compound 25, 3-n-Butyl-3H-9-oxa-3,10a-diaza-phenanthrene-2,10-dione]
Sphaerotheca fuliginea
  pest or weed control at 300 g/ha: 0%
Pyricularia oryzae
  pest or weed control at 300 g/ha: 75%

## CCOC(=O)Cn1nc(-c2ccc(Cl)cc2)ncc1=O [Compound 250]
Sphaerotheca fuliginea
  Cucumber Powdery Mildew (CPM) protectant fungicide data, percent control: 50 percent control
Pyricularia oryzae
  Rice Blast (RB) protectant fungicide data, percent control: 90 percent control

## CCCN1N=C(c2cc(Cl)cc(Cl)c2)NCC1=O [Compound 107]
Sphaerotheca fuliginea
  Cucumber Powdery Mildew (CPM) protectant fungicide data, percent control: 95 percent control
Pyricularia oryzae
  Rice Blast (RB) protectant fungicide data, percent control: 99 percent control

## O=C1CNC(c2ccc(Cl)c(Cl)c2)=NN1c1cccc(Cl)c1 [Compound 196]
Sphaerotheca fuliginea
  Cucumber Powdery Mildew (CPM) protectant fungicide data, percent control: 0 percent control
Pyricularia oryzae
  Rice Blast (RB) protectant fungicide data, percent control: 99 percent control

## CCCCN1N=C(c2ccccc2OC)NCC1=O [Compound 195]
Sphaerotheca fuliginea
  Cucumber Powdery Mildew (CPM) protectant fungicide data, percent control: 50 percent control
Pyricularia oryzae
  Rice Blast (RB) protectant fungicide data, percent control: 99 percent control

## O=C1CNC(c2ccc(Cl)c(Cl)c2)=NN1CC1CC1 [Compound 9, 1-Cyclopropylmethyl-3-(3,4-dichlorophenyl)-4,5-dihydro-1,2,4-triazin-6-one]
Sphaerotheca fuliginea
  pest or weed control at 300 g/ha: 80%
Pyricularia oryzae
  pest or weed control at 300 g/ha: 100%

## N#CCCN1N=C(c2ccc(-c3ccc([N+](=O)[O-])cc3)cc2)NCC1=O [Compound 166]
Sphaerotheca fuliginea
  Cucumber Powdery Mildew (CPM) protectant fungicide data, percent control: 0 percent control
Pyricularia oryzae
  Rice Blast (RB) protectant fungicide data, percent control: 75 percent control

## CCCCN1N=C(c2ccc(Cl)c(Cl)c2)N(C(=O)Oc2ccccc2)CC1=O [Compound 173]
Sphaerotheca fuliginea
  Cucumber Powdery Mildew (CPM) protectant fungicide data, percent control: 0 percent control
Pyricularia oryzae
  Rice Blast (RB) protectant fungicide data, percent control: 50 percent control

## O=C1CNC(c2ccc(F)c(Br)c2)=NN1CC(F)(F)F [Compound 208]
Sphaerotheca fuliginea
  Cucumber Powdery Mildew (CPM) protectant fungicide data, percent control: 50 percent control
Pyricularia oryzae
  Rice Blast (RB) protectant fungicide data, percent control: 95 percent control
